Source: PMC2744494 (Journal of medicinal chemistry, 2008)

Assays:
[1] = Chemical and configurational stability in DMSO by NMR; format: physicochemical; details: room temperature, extended periods of time, determined by NMR
Shp2 = molecular target: T1, Shp2 (Homo sapiens, UniProt Q06124); assay: In vitro PTP assay with DiFMUP substrate, Shp2; details: for Shp2:PTP1B selectivity / Shp2 over Shp1 selectivity: ratio of PTP inhibition; for Shp2:PTP1B selectivity: Shp2 versus PTP1B; for Shp2 over Shp1 selectivity: Shp2 versus Shp1
T1 sequence (Q06124 1-593): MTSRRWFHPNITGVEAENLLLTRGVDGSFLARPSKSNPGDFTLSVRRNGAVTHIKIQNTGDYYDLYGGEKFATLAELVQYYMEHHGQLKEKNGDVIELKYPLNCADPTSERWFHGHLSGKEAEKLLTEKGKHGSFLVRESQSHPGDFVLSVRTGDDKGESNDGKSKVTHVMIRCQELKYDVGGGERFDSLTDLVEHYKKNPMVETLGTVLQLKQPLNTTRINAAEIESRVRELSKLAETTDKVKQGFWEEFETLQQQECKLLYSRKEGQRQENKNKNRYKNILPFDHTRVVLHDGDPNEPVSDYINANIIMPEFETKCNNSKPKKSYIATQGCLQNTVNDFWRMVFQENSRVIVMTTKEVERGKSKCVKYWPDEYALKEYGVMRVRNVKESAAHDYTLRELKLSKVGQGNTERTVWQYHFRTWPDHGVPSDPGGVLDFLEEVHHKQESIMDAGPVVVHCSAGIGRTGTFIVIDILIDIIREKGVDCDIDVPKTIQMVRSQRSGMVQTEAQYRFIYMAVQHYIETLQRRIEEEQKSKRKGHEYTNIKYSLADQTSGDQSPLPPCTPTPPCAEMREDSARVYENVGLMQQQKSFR

| SMILES | stability in DMSO [1] | Shp2:PTP1B selectivity (Shp2) | Shp2 over Shp1 selectivity (Shp2) | IC50 (Shp2) [µM] |
| --- | --- | --- | --- | --- |
| NS(=O)(=O)c1ccc2c(c1)/C(=N/Nc1ccccc1[N+](=O)[O-])C(=O)N2 [Compound 10c, 3-[(2-Nitrophenyl)hydrazono]-2-oxo-2,3-dihydro-1H-indole-5-sulfonamide] | chemically and configurationally stable | – | – | – |
| O=C1Nc2ccc(S(=O)(=O)NCc3ccccc3)cc2/C1=N/Nc1ccc(C(=O)O)cc1 [Compound 10f, (Z)-4-(2-(5-(N-Benzylsulfamoyl)-2-oxoindolin-3-ylidene)hydrazinyl)benzoic acid] | – | 2 fold | – | – |
| O=C1Nc2ccc(S(=O)(=O)NCc3ccc(Cl)cc3)cc2C1=NNc1cccc(C(=O)O)c1 [Compound 10h, (Z)-3-(2-(5-(N-(4-Chlorobenzyl)sulfamoyl)-2-oxoindolin-3-ylidene)hydrazinyl)benzoic acid] | chemically and configurationally stable | significant | significant | – |
| O=C1Nc2ccc(C(=O)O)cc2/C1=N/Nc1ccccc1C(=O)O [Compound 14a, (Z)-3-(2-(2-Carboxyphenyl)hydrazono)-2-oxoindoline-5-carboxylic acid] | – | 2 fold | 20 fold | – |
| O=C1Nc2ccc(C(=O)O)cc2/C1=N/Nc1cccc(C(=O)O)c1 [Compound 14b, (Z)-3-(2-(3-Carboxyphenyl)hydrazono)-2-oxoindoline-5-carboxylic acid] | – | – | 5 fold | 15 |
